Laboratory results from patent publication US9988635B2, “Modulation of growth hormone receptor expression and insulin-like growth factor expression” (Antisense Therapeutics Limited, priority 2003, dated 2018).
In the oligonucleotide strings, read from the 5' end, every base follows the letter of its sugar. An asterisk marks phosphorothioate; unmarked linkages are phosphodiester. Other units and linkages are bracketed, terminal groups are in braces. A string of capitals states the bases alone. e = 2'-O-(2-methoxyethyl) (MOE); [5mC] = 5-methylcytosine; d = 2'-deoxy (DNA)

Tests used:
[1] = Body weight, body length, organ weights and food intake, 1 week pilot study; type: in vivo, mouse; settings: 30 mg/kg every second day
Procedure: (§1) Saline, antisense, mismatch control and octreotide samples were prepared, and coded for blinding. Animals were given a subcutaneous dose of saline every second day, and mismatch control or antisense with administration on days 0, 2, 4, 6. Animals were given twice daily doses of 25 μg octreotide. Animals were housed 4 per cage, for the duration of one week. They had access to a pre-determined quantity of standard mouse food and water at all times throughout the experiment. They were housed in a quiet, temperature- and humidity-maintained environment for the entirety of the study. At day 0 and before treatment on each day or second day, the animals had their body weight and food intake measured, enabling the correct dose of agent to be administered. The animals were monitored closely for any changes in fur, skin, eye, locomotion or other changes in behavior. No problems were observed. Every second day from day −7 to day 7 body weight and food intake were measured.
The serum remaining following the insulin-like growth factor-1 assay was isolated and stored at −80° C. The whole liver was removed rapidly for weighing and snap-frozen in labelled aluminum parcels by submersion in liquid-nitrogen. […]
This confirms published results of others. […] Weight was measured in two ways: weight trend (live animal), and final carcass weight. […]

[2] = tested on: growth hormone receptor mRNA; assay: Growth hormone receptor mRNA levels in liver, 2 week study; type: in vivo, mouse; settings: 30 mg/kg; two-week study
Procedure: (§2) A two-week study was done in similar fashion to the one-week study in Example 18, this time using ISIS 227446 at doses of 3, 5, 10, 20 and 30 mg/kg. The mismatch control was given at the same doses. Mice were treated with antisense compound or saline every other day for 14 days.
Growth hormone receptor mRNA levels in liver tissue samples from treated and untreated mice in this two-week study were assayed. The growth hormone receptor antisense inhibitor ISIS 227446 reduced growth hormone receptor mRNA levels in liver after the two-week study by 50% at the 20 mg/kg dose relative to saline control (p<0.001). The 30 mg/kg dose of ISIS 227446 yielded a 53% decrease in growth hormone receptor mRNA (p<0.0001). The mismatch control oligonucleotide ISIS 261303 (SEQ ID NO: 267), at 30 mg/kg, reduced growth hormone receptor mRNA levels by approximately 3%.

serum IGF-I [3] = assay: Serum IGF-I, 2 week study in mice; type: in vivo, mouse; settings: 3 mg/kg; equivalent to saline (untreated) control (separate experiment)
Procedure: as §2
P-values were determined by t-test.

growth hormone receptor = assay: [125I] hGH specific binding assay on liver microsomal membranes of treated mice; type: in vivo, mouse
Procedure: Specific binding assays were carried out with liver tissue using iodinated human growth hormone [^125I] hGH.
Microsomal membrane preparations were obtained as follows. 400 mg of tissue powder was homogenized in cold homogenizing buffer (50 mM Tris/HCl, 250 mM sucrose, pH 7.4). This was centrifuged at 2000 rpm for 10 min at 3° C. and the supernatant was saved. This was centrifuged again at 15,000 rpm for 20 min. Pellets were resuspended in 0.5 ml of RRA buffer with inhibitor (50 mM Tris, 20 mM MgCl2, pH 7.4). Microsomal preparation samples were stored at −80° C. until the specific binding assay.
The [^125I] hGH specific binding assay was done as follows. Four glass tubes were set up for each sample, two for (−), two for (+). Different sample and solutions were added in each tube as follows (i) 0.2 ml RRA buffer (50 mM Tris, 20 mM MgCl2, 0.1% BSA, pH 7.4); (ii) 0.1 ml membrane (½ or ¼ dilution); (iii) 0.1 ml bGH (10 μg/ml) for the (+) tube or 0.1 ml RRA buffer for the (−) tube; and (iv) 0.1 ml [^125I]-hGH tracer.
Samples were incubated at 4° C. with shaking overnight. The reaction was stopped with 2.5 ml of cold RRA, and the sample centrifuged at 2800 rpm for 25 min at 4° C. Supernatant was aspirated and pellets counted using the γ-counter. The specific binding capacity was calculated as: CPM(−)-CPM(+). Protein content of the microsomal samples was determined by the BCA protein assay.

[4] = tested on: serum insulin-like growth factor-I; assay: Serum IGF-I by radioimmunoassay, 1 week pilot study in Balb/C(a) mice; type: in vivo, mouse
Procedure: Forty male Balb/C(a) mice weighing 9 to […] were placed into cages, 4 animals per cage, and allowed to assimilate into their environment with new littermates ˜1 week prior (Day −7) to the commencement of 1 week study. Mice of this age would be at their maximum growth rate. Their body weights were measured and recorded every second day during this period. When mice weighed 11 g (day −2), a blood sample was collected under anesthesia as described below, and a serum IGF-I assay was performed to determine pre-treatment values and to aid in the assigning of mice to treatment groups in order to reduce animal variability. To obtain the blood sample, the animals were anaesthetized with pentobarbital (50 mg/kg i.p.) and non-fasting blood samples collected exactly 5 minutes later from the retrobulbar plexus through heparinized capillary tubes under light ether anesthesia. The 40 animals were placed into five groups with each group having a similar weight average and similar IGF-I average concentration for the trial.
Animals (n=8/group) were designated to the following five treatment groups:
as §1
On day 7, one day after the last dose of antisense, and/or after the last octreotide dose, the animals were anaesthetized with pentobarbital (50 mg/kg i.p.) and non-fasting blood samples collected exactly 5 minutes later from the retrobulbar plexus through heparinized capillary tubes under light ether anesthesia (as on day −7 and 0).
At day −2 and day 7, serum IGF-I measurement was done by radioimmunoassay. Serum IGF-I level is the most widely used measure of growth hormone biological activity in human therapy. It is used to measure the efficacy of growth hormone antagonist treatments like Trovert, which block cells' responsiveness to excess growth hormone, and dopamine agonists and octreotide somatostatin […] drugs that block growth hormone secretion from the pituitary.

serum IGF-I [5] = settings: animal models; decreased tumor volume in breast cancer; cited from earlier work
[6] = cited from earlier work
[7] = 30 mg/kg every second day for one week
[8] = 30 mg/kg s.c. every second day for one week
[9] = 30 mg/kg s.c. once every 2 days, 1 week
[10] = liver microsomal membranes, 30 mg/kg every second day for one week

acaaagatccatacctgaga (eA*e[5mC]*eA*eA*eA*dG*dA*dT*d[5mC]*d[5mC]*dA*dT*dA*d[5mC]*d[5mC]*eT*eG*eA*eG*eA; antisense) [ISIS 227446]
influence on body weight or organ weights [1]: not sufficient to influence body weight or organ weights | reduction of growth hormone receptor mRNA levels in liver [2]: 53% | effect on serum IGF-I levels (serum IGF-I [3]): no effect | reduction of specific binding compared to saline, ¼ dilution (growth hormone receptor; [7]): 39% | reduction of specific binding compared to saline, ½ dilution (growth hormone receptor; [7]): 26% | growth hormone receptor levels (growth hormone binding activity) as % of control (saline) group (growth hormone receptor; [8]): 61% | growth hormone receptor levels as % of the control (mismatch) group (growth hormone receptor; ½ dilution experiment, 30 mg/kg): 59% | serum IGF-I as % of the control (saline) group [4, 8]: 55% | % IGF-I reduction at day 7 compared to saline control at day 7 [4, 9]: 45% | % IGF-I reduction at day 7 compared to saline control at day 7 ([4]; 30 mg/kg s.c. once every 2 days, 1 week, listed as ASO): 44.51%

Pegvisomant [Trovert]
reduction of serum IGF-I (serum IGF-I [5]): 20-50% | drop-out rate ([6]; clinical trial experience): 10% | serum insulin-like growth factor-I levels reduced by ([6]; human therapeutic Trovert doses, 12 week and greater than 1 year studies): 50% | antibodies being made to Trovert, time of dosing ([6]; immunogenicity): ≤ 1 month | effective in % of patients ([6]; patients with acromegaly): 90-95%

ISIS 261303: negative control oligonucleotide, 8-base mismatch to ISIS 227446 (DNA AGAGAGCTACCTAACTAACA; chemistry not given here) [reference compound]
reduction of growth hormone receptor mRNA levels in liver [2]: approximately 3% | effect on growth hormone receptor levels compared to the control saline group (growth hormone receptor; 30 mg/kg): no effect | Specific binding/mg protein (cpm) ¼ dilution (growth hormone receptor; [10]): 8431 ± 2663 cpm | Specific binding/mg protein (cpm) ½ dilution (growth hormone receptor; [10]): 7090 ± 1877 cpm | % IGF-I reduction at day 7 compared to saline control at day 7 [4, 9]: 21% | IGF-I (ng/ml) Day 7 [4, 9]: 81.1 ± 19.16 ng/mL | % IGF-I reduction at day 7 compared to saline control at day 7 ([4]; 30 mg/kg s.c. once every 2 days, 1 week, listed as Mismatch): 20.98% | IGF-I (ng/ml) Day −2 ([4]; pre-treatment value, 30 mg/kg once every 2 days group): 184.87 ± 55.6 ng/mL
